Assay: Side effect profile of pediatric leukemia patients during busulfan preconditioning for bone marrow transplantation
Format: in vivo, human
Description: Firstly, an analysis was conducted on 146 pediatric leukemia patients showing warning signs of serious side effects during treatment with the anticancer agent busulfan (Myleran, GlaxoSmithKline, Busulfex IV, Otsuka America Pharmaceutical, Inc.) to remove bone marrow as a preconditioning for bone marrow transplantation.

[1] = of 146 pediatric leukemia patients treated with busulfan

CS(=O)(=O)OCCCCOS(C)(=O)=O [Busulfan]
Number of patients: AUC 170 or higher (human, in vivo): 71 | Number of patients: Hepatic veno-occlusive disease (human, in vivo): 18 | Number of patients: Intermediate toxicity grade 3 or higher (human, in vivo): 11 | Number of patients: Intermediate toxicity grade 4 or higher (human, in vivo): 1 | Number of patients: Short-term toxicity grade 3 or higher (human, in vivo): 31 | Number of patients: Short-term toxicity grade 4 or higher (human, in vivo): 2 | Number of patients: Death [1]: 36 | Number of patients: Toxicity-related death [1]: 22
